Source: publication PMC9852545, “The crystal structure of Vibrio cholerae (6-4) photolyase reveals interactions with cofactors and a DNA-binding region” (The Journal of Biological Chemistry, 2022)

Target: T1, Vc (6-4) PL (Vibrio cholerae, UniProt Q9KLD7)
T1 construct: gene VC_A0809
Test: X-ray crystallography, […] Å
Assay type: binding
Details: 100 K

T1 sequence (Q9KLD7 1-516 limits assumed): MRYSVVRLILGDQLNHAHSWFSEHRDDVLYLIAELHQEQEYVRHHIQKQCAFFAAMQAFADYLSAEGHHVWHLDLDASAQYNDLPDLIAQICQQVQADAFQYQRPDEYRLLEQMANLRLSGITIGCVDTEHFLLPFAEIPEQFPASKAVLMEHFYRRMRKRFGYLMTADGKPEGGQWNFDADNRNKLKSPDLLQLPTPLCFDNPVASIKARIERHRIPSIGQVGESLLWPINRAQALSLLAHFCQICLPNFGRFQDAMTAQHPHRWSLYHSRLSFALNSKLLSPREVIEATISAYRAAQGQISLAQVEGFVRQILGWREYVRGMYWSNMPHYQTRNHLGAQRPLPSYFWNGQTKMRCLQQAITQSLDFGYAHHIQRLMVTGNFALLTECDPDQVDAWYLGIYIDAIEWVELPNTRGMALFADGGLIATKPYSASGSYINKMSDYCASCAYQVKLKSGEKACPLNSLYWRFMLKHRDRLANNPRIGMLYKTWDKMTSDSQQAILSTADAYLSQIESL

With `Cc1nc2c(=O)[nH]c(=O)nc-2n(C[C@H](O)[C@H](O)[C@H](O)CO)c1C` [DMRL] the “X-ray crystallography, 2.5 Å” value (photoantenna site in alpha/beta domain, co-purified) was “there is a very well-defined electron density of the DMRL and interacting amino acid residues”.

In the case of `Cc1cc2nc3c(=O)[nH]c(=O)nc-3n(C[C@H](O)[C@H](O)[C@H](O)COP(=O)(O)OP(=O)(O)OC[C@H]3O[C@@H](n4cnc5c(N)ncnc54)[C@H](O)[C@@H]3O)c2cc1C` [FAD], the “X-ray crystallography, 2.5 Å” value (catalytic site in alpha-helical domain, co-purified, redox state not stated) is reported as “FAD has a U-shaped conformation in the α-helical domain”.

For `[S]12[Fe]3[S]4[Fe]1[S]1[Fe]2[S]3[Fe]41` [[4Fe-4S] cluster], the “X-ray crystallography, 2.5 Å” value (bound by Cys357, Cys445, Cys448, Cys461, covalent coordination, co-purified aerobically) was “Cys357, Cys445, Cys448, and Cys461 sulfide atoms make bonds with Fe atoms in the cluster”.
